Reference: patent publication US10941113B2, “Sulfamoyl-arylamides and the use thereof as medicaments for the treatment of hepatitis B” (Janssen Sciences Ireland UC, priority 2013, dated 2021)

What was measured:
Assay type in all cases: cell-based
HBV [1] = experiment: Anti-HBV activity, HepG2.2.15 stable transfected cell line, HBV DNA from secreted virions by realtime PCR; conditions: Hepatitis B virus, 144 h, HepG2.2.15 cells, 6 days of treatment
HBV [2] = experiment: Anti-HBV activity, HepG2.117 inducible HBV producing cell line (Tet-off), intracellular HBV DNA by realtime PCR; conditions: Hepatitis B virus, 72 h, HepG2.117 cells, 3 days of treatment
[3] = Cytotoxicity in HepG2 cells, Resazurin assay; conditions: human, incubated 4 days, Resazurin viability

| Compound | EC50 (HBV [1]) [nM] | EC50 (HBV [2]) [nM] | CC50 at 4 days [3] [nM] |
| --- | --- | --- | --- |
| Cc1cc(NC(=O)c2cccc(S(=O)(=O)NC(C)CC#N)c2)ccc1F (racemic) [Compound 10] | 220 | 190 | > 25000 |
| Cc1cc(NC(=O)c2cccc(S(=O)(=O)N[C@H](C)CC#N)c2)ccc1F (racemic) [Compound 10a] | 100 | 140 | > 25000 |
| Cc1cc(NC(=O)c2cccc(S(=O)(=O)NC(C)CCCC(C)(C)O)c2)ccc1F (racemic) [Compound 21] | 170 | 1710 | > 25000 |
| COC(=O)NCC(C)NS(=O)(=O)c1cccc(C(=O)Nc2ccc(F)c(C)c2)c1 (stereo not drawn) [Compound 1] | 130 | 370 | > 25000 |
| COC(=O)NC[C@@H](C)NS(=O)(=O)c1cccc(C(=O)Nc2ccc(F)c(C)c2)c1 [Compound 1a] | 180 | 110 | > 25000 |
| COC(=O)NC[C@H](C)NS(=O)(=O)c1cccc(C(=O)Nc2ccc(F)c(C)c2)c1 [Compound 1b] | 1850 | 1570 | > 25000 |
| CNCC(C)NS(=O)(=O)c1cccc(C(=O)Nc2ccc(F)c(C)c2)c1 (stereo not drawn) [Compound 2] | 9400 | 2400 | > 25000 |
| Cc1cc(NC(=O)c2cccc(S(=O)(=O)NC(C)CN(C)C)c2)ccc1F (stereo not drawn) [Compound 3] | 7500 | 1100 | > 25000 |
| Cc1cc(NC(=O)c2cccc(S(=O)(=O)NC(C)CO)c2)ccc1F (stereo not drawn) [Compound 4, N-(4-fluoro-3-methyl-phenyl)-3-[(2-hydroxy-1-methyl-ethyl)sulfamoyl]benzamide] | 280 | 320 | > 25000 |
| Cc1cc(NC(=O)c2cccc(S(=O)(=O)N[C@H](C)CO)c2)ccc1F [Compound 4a] | 210 | 260 | > 25000 |
| Cc1cc(NC(=O)c2cccc(S(=O)(=O)N[C@@H](C)CO)c2)ccc1F [Compound 4b] | 400 | 940 | > 25000 |
| COCC(C)NS(=O)(=O)c1cccc(C(=O)Nc2ccc(F)c(C)c2)c1 (stereo not drawn) [Compound 5] | 240 | 840 | > 25000 |
| Cc1cc(NC(=O)c2cccc(S(=O)(=O)NC(C)CCC(=O)N(C)C)c2)ccc1F (stereo not drawn) [Compound 6] | 180 | 110 | > 25000 |
| CNC(=O)CCC(C)NS(=O)(=O)c1cccc(C(=O)Nc2ccc(F)c(C)c2)c1 (stereo not drawn) [Compound 7] | 540 | 240 | > 25000 |
| COC(=O)CCC(C)NS(=O)(=O)c1cccc(C(=O)Nc2ccc(F)c(C)c2)c1 (stereo not drawn) [Compound 8] | 1400 | 2800 | > 25000 |
| CC(=O)NCC(C)NS(=O)(=O)c1cccc(C(=O)Nc2ccc(F)c(C)c2)c1 (stereo not drawn) [Compound 9] | 1300 | 560 | > 25000 |
| Cc1cc(NC(=O)c2cccc(S(=O)(=O)N[C@H](CO)C(C)C)c2)ccc1F [Compound 11] | 550 | 830 | > 25000 |
| CCC[C@@H](CO)NS(=O)(=O)c1cccc(C(=O)Nc2ccc(F)c(C)c2)c1 [Compound 12] | 650 | 820 | > 25000 |
| Cc1cc(NC(=O)c2cccc(S(=O)(=O)NC(C)CCO)c2)ccc1F (stereo not drawn) [Compound 13] | 210 | 710 | > 25000 |
| Cc1cc(NC(=O)c2cccc(S(=O)(=O)NC(C)(C)CO)c2)ccc1F [Compound 14] | 380 | 530 | > 25000 |
| Cc1cc(NC(=O)c2cccc(S(=O)(=O)NC(C)(C)CCO)c2)ccc1F [Compound 15] | 220 | 320 | > 25000 |
| C#CC(C)(C)NS(=O)(=O)c1cccc(C(=O)Nc2ccc(F)c(C)c2)c1 [Compound 16] | 190 | 590 | > 25000 |
| Cc1cc(NC(=O)c2cccc(S(=O)(=O)NCCCC(=O)N(C)C)c2)ccc1F [Compound 17] | 260 | 610 | > 25000 |
| Cc1cc(NC(=O)c2cccc(S(=O)(=O)N[C@H](C)CNC(=O)OC(C)(C)C)c2)ccc1F [Compound 18] | 200 | 190 | > 25000 |

| Compound | EC50 (HBV [1]) [nM] | EC50 (HBV [2]) [nM] | CC50 at 4 days [3] [nM] |
| --- | --- | --- | --- |
| Cc1cc(NC(=O)c2cccc(S(=O)(=O)N[C@@H](C)CNC(=O)OC(C)(C)C)c2)ccc1F [Compound 19] | 740 | 500 | > 25000 |
| COC(=O)N(C)CC(C)NS(=O)(=O)c1cccc(C(=O)Nc2ccc(F)c(C)c2)c1 (stereo not drawn) [Compound 20] | 550 | 560 | > 25000 |
| Cc1cc(NC(=O)c2cccc(S(=O)(=O)N[C@H](C)C(N)=O)c2)ccc1F [Compound 22] | 550 | 500 | > 25000 |
| Cc1cc(NC(=O)c2cccc(S(=O)(=O)N[C@@H](C)C(N)=O)c2)ccc1F [Compound 23] | 1100 | 1430 | > 25000 |
| COCCC(C)NS(=O)(=O)c1cccc(C(=O)Nc2ccc(F)c(C)c2)c1 (stereo not drawn) [Compound 24] | 210 | 1370 | > 25000 |
| Cc1cc(NC(=O)c2cccc(S(=O)(=O)NC(C)C(C)CO)c2)ccc1F (stereo not drawn) [Compound 25] | 250 | 570 | > 25000 |
| CCC(C)(CO)NS(=O)(=O)c1cccc(C(=O)Nc2ccc(F)c(C)c2)c1 (stereo not drawn) [Compound 26] | 390 | 340 | > 25000 |
| COCC(C)(CCO)NS(=O)(=O)c1cccc(C(=O)Nc2ccc(F)c(C)c2)c1 (stereo not drawn) [Compound 27] | 1160 | 960 | > 25000 |
| COC(C)(C)CC(C)NS(=O)(=O)c1cccc(C(=O)Nc2ccc(F)c(C)c2)c1 (stereo not drawn) [Compound 28] | 270 | 1410 | > 25000 |
| CC(=O)CC(C)NS(=O)(=O)c1cccc(C(=O)Nc2ccc(F)c(C)c2)c1 (stereo not drawn) [Compound 29] | 190 | 230 | > 25000 |
| Cc1cc(NC(=O)c2cccc(S(=O)(=O)NC(C)C(C)(C)O)c2)ccc1F (stereo not drawn) [Compound 30] | 260 | 170 | > 25000 |
| COCC(C)(CO)NS(=O)(=O)c1cccc(C(=O)Nc2ccc(F)c(C)c2)c1 (stereo not drawn) [Compound 31] | 480 | 470 | > 25000 |
| Cc1cc(NC(=O)c2cccc(S(=O)(=O)NCCS(C)(=O)=O)c2)ccc1F [Compound 32] | 190 | 640 | > 25000 |
| Cc1cc(NC(=O)c2cccc(S(=O)(=O)NC(C)C(C)O)c2)ccc1F (stereo not drawn) [Compound 33] | 320 | 260 | > 25000 |
| COCC(C)(C)NS(=O)(=O)c1cccc(C(=O)Nc2ccc(F)c(C)c2)c1 [Compound 34] | 540 | 640 | > 25000 |
| Cc1cc(NC(=O)c2cccc(S(=O)(=O)N[C@@H](C)C(=O)N(C)C)c2)ccc1F [Compound 35] | 2700 | 3620 | > 25000 |
| Cc1cc(NC(=O)c2cccc(S(=O)(=O)NC(C)(C)CC(C)O)c2)ccc1F (stereo not drawn) [Compound 36] | 270 | 150 | > 25000 |
| Cc1cc(NC(=O)c2cccc(S(=O)(=O)NCC(C)(C)C(=O)O)c2)ccc1F [Compound 37] | 2680 | 3030 | > 25000 |
| Cc1cc(NC(=O)c2cc(S(=O)(=O)N[C@H](C)CO)ccc2C)ccc1F [Compound 38] | 160 | 180 | > 25000 |
| Cc1cc(NC(=O)c2cccc(S(=O)(=O)NC(C)CC(=O)N(C)C)c2)ccc1F (stereo not drawn) [Compound 39] | 1050 | 860 | > 25000 |
| Cc1cc(NC(=O)c2cccc(S(=O)(=O)N[C@H](C)C(=O)N(C)C)c2)ccc1F [Compound 40] | 2280 | 2660 | > 25000 |
| CNC(=O)[C@@H](C)NS(=O)(=O)c1cccc(C(=O)Nc2ccc(F)c(C)c2)c1 [Compound 41] | 2220 | 1350 | > 25000 |
| Cc1cc(NC(=O)c2cccc(S(=O)(=O)N[C@H](C)CS(C)(=O)=O)c2)ccc1F [Compound 42] | 250 | 150 | > 25000 |
